Test system: 4T1 (murine TNBC) cells
Experiment: TNBC allograft model
Format: in vivo, mice
Conditions: 0.5 mg/kg i.p. daily, 18 days

SMILES: N.N.[Cl][Pt][Cl] [cisplatin]
- reduction of average tumor weight at sacrifice: 25.2%
